Test system: HDAC
Test: Alternative HDAC activity assay (Cayman Chemicals fluorescent-based HDAC activity assay)
Assay type: biochemical
Details: acetylated lysine substrate, HDAC developer, fluorescence readout; compared with MS-275
Procedure: Cayman Chemicals markets a commercial fluorescent-based HDAC activity assay. The assay utilizes a fluorescent-based method for measuring HDAC activity that eliminates radioactivity, extraction or chromatography. The assay requires two steps: first, an acetylated lysine substrate is incubated with samples containing HDAC activity. Deacetylation sensitizes the substrate such that treatment with the HDAC developer in the second step releases a fluorescent product. The fluorophore can be analyzed using a fluorescence plate reader or a fluorometer with […].

Compound | HDAC activity (fluorescent-based HDAC activity assay, FIG. 1)
C[C@@H](OC(=O)NCc1ccc(C(=O)Nc2ccccc2N)cc1)c1cccnc1 [(R)-1-(pyridin-3-yl)ethyl 4-(2-aminophenylcarbamoyl)benzylcarbamate] | activity similar to MS-275
C[C@H](OC(=O)NCc1ccc(C(=O)Nc2ccccc2N)cc1)c1cccnc1 [(S)-1-(pyridin-3-yl)ethyl 4-(2-aminophenylcarbamoyl)benzylcarbamate] | activity similar to MS-275
